“And” between values parts separate entries of the source, which are not always exact repeats. Identical values can stand only once.
Key:
[1] = target: T1, AhR (Homo sapiens, UniProt P35869); experiment: EROD assay (7-ethoxy-resorufin-O-deethylase; CYP1A1 activity) in human HepG2 cells; assay type: cell-based; details: for EC90: HepG2, human HepG2 cells
T1 construct: host or cells: human HepG2 cells
T1 sequence (P35869 11-848): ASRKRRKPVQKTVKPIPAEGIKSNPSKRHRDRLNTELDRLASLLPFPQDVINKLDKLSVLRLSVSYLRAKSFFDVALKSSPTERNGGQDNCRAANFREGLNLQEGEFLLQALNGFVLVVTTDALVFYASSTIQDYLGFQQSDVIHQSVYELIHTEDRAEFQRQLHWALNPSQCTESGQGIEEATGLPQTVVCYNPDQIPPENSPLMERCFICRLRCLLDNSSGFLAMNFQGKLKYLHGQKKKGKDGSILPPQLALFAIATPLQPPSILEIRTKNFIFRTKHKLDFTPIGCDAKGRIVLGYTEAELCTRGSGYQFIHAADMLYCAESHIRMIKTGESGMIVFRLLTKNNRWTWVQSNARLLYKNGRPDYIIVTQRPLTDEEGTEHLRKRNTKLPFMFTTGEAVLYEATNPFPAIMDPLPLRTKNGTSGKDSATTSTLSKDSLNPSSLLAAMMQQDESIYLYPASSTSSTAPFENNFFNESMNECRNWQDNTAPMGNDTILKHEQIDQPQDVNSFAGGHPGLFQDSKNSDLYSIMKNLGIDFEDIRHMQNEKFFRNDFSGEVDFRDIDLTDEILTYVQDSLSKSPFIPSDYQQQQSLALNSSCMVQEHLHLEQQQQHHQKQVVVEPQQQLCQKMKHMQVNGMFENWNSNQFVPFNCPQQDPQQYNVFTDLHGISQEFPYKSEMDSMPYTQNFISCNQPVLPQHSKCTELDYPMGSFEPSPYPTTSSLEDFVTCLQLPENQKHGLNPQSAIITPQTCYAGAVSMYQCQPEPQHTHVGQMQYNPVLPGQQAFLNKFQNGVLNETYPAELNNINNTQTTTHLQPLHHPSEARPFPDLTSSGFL
Method: CYP1A1 induction is under the control of the AhR signaling pathway. This Example describes an in vitro assay (7-ethoxy-resorufin-O-deethylase (EROD) assay) that evaluated the AhR modulating activities of the indole compounds described herein. In this assay, the indole compounds were incubated with human HepG2 cells or mouse Hepa1-6 cells. The activity of CYP1A1 in the cells was measured by the conversion of substrate 7-ethoxyresorufin, with the readout being a fluorescence signal associated with the conversion product. The EC50 values of the indole compounds as well as the maximum luminescence induced by them in the assay were determined.
Human HepG2 cells were obtained from Sigma Aldrich (Catalog 85011430-1VL).
Human HepG2 cells were grown to 60-80% confluency in tissue culture flasks, lifted with non-enzymatic cell dissociation solution (cell stripper), seeded in a 384-well plate at 5,000 cells per well, treated with the test compounds, and incubated for 20 hours overnight at 37° C. The treatment medium was removed and a solution of substrate 7-ethoxyresorufin (ETX) was added to initiate the reaction. The plate was incubated at 37° C. for 30 minutes. The reaction was subsequently terminated by adding tempered methanol. Fluorescent emission was measured at 590 nm with excitation at 530 nm in a FLEXSTATION III instrument (Molecular Devices).

[2] = CYP profiling: turnover in human liver microsomes, 30 min, no inhibitor; assay type: in vitro ADME; design: % Compound Metabolized at 30 min, No Inhibitor: concentration or dose not given beside the values; details: HLMs
Method: (§1) In order to investigate the contributions of CYP1A2 and CYP3A4 to the metabolism of the compounds of the present disclosure, human liver microsomes were incubated with the test compounds for 30 minutes in the presence of selective chemical inhibitors furafylline (1A2) and ketoconazole (3A4).

[3] = target: T2, CYP1A2 (Homo sapiens, UniProt P05177); experiment: CYP profiling: human liver microsomes with CYP1A2 inhibitor furafylline; assay type: in vitro ADME; design: % Compound Metabolized at 30 min, CYP1A2 Inhibitor: concentration or dose not given beside the values; details: HLMs; for % Inhibition Relative to Negative Control, 1A2: 30 min
T2 construct: from tissue; host or cells: human liver microsomes
T2 sequence (P05177 1-516): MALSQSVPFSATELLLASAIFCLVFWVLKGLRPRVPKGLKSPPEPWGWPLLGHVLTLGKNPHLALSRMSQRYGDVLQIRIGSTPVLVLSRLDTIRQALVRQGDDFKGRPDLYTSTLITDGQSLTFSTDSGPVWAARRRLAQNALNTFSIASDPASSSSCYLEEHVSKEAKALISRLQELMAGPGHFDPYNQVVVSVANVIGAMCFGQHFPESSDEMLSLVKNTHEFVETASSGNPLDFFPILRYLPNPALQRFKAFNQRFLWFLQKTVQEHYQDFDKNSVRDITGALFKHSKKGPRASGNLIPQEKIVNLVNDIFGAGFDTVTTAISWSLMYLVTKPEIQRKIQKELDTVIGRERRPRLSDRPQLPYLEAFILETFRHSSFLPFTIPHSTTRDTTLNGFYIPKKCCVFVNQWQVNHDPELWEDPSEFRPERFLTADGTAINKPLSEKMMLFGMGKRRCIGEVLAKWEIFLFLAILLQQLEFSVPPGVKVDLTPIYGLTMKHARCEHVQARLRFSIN
Method: as §1

[4] = target: T3, CYP3A4 (Homo sapiens, UniProt P08684); experiment: CYP profiling: human liver microsomes with CYP3A4 inhibitor ketoconazole; assay type: in vitro ADME; design: % Compound Metabolized at 30 min, CYP3A4 Inhibitor: concentration or dose not given beside the values; details: HLMs; for % Inhibition Relative to Negative Control, 3A4: 30 min
T3 construct: from tissue; host or cells: human liver microsomes
T3 sequence (P08684 whole entry): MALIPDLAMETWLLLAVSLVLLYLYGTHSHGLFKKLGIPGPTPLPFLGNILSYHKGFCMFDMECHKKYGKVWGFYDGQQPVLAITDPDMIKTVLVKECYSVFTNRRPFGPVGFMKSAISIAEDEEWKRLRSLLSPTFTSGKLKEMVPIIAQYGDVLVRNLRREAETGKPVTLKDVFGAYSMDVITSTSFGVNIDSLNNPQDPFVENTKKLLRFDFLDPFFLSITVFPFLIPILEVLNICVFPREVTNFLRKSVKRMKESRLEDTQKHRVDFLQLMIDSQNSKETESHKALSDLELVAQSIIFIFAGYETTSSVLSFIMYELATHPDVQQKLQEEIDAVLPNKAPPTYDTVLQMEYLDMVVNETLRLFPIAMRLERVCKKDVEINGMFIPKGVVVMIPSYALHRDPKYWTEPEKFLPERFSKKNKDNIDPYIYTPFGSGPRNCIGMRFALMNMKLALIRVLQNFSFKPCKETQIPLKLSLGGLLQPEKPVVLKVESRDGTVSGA
Method: as §1

SMILES | EC90 ([1]; Plate 2) | EC50 ([1]; human HepG2 cells, Plate 2) | % Compound Metabolized at 30 min, No Inhibitor [2] | metabolic turnover (in words) [2] | % Compound Metabolized at 30 min, CYP1A2 Inhibitor [3] | % Inhibition Relative to Negative Control, 1A2 [3] | % Compound Metabolized at 30 min, CYP3A4 Inhibitor [4] | % Inhibition Relative to Negative Control, 3A4 [4] | EC90 ([1]; Plate 1) | EC50 ([1]; human HepG2 cells, Plate 1) | fold more potent than ARI-219 by EC50 ([1]; human HepG2 cells) | fold more potent than ARI-219 by EC90 ([1]; human HepG2 cells) | fold more potent than ARI-164 by EC50 ([1]; human HepG2 cells) | fold more potent than ARI-164 by EC90 ([1]; human HepG2 cells) | fold more potent than ARI-187 by EC50 ([1]; human HepG2 cells) | fold more potent than ARI-187 by EC90 ([1]; human HepG2 cells)
N[C@H](c1csc(C(=O)c2c[nH]c3ccccc23)n1)C(F)(F)F [ARI-228] | 217 nM | 65.6 nM | 89% | high turnover | 23% | 74% | 75% | 16% | – | – | – | – | – | – | – | –
CC[C@@H](N)c1csc(C(=O)c2c[nH]c3cc(F)ccc23)n1 [ARI-187, (R)-(4-(1-aminopropyl)thiazol-2-yl)(6-fluoro-1H-indol-3-yl)methanone] | – | – | 4% | – | 7% | None | 3% | 25% | 152 nM | 55.6 nM | – | – | – | – | – | –
CCC(=O)c1csc(C(=O)c2c[nH]c3cc(F)ccc23)n1 [ARI-143, 1-(2-(6-fluoro-1H-indole-3-carbonyl)thiazol-4-yl)propan-1-one] | 347 nM | 95.2 nM | 69% and 91% | – | 32% and 17% | 54% and 81% | 82% and 92% | None | – | – | – | – | – | – | – | –
O=C(c1nc([C@@H](O)C(F)(F)F)cs1)c1c[nH]c2cc(F)ccc12 [ARI-211] | – | – | 50% | – | 67% | None | 59% | None | 183 nM | 35.9 nM | – | – | – | – | – | –
CC[C@H](N)c1csc(C(=O)c2c[nH]c3ccc(F)cc23)n1 [ARI-218] | 7.9 nM | 6.3 nM | 16% | – | 17% | None | 0% | 100% | – | – | 19.7 × | 53 × | – | – | – | –
N[C@@H](c1csc(C(=O)c2c[nH]c3cc(F)ccc23)n1)C(F)(F)F [ARI-224] | 152 nM | 33.7 nM | 9% | low turnover | 7% | 22% | 8% | 11% | – | – | – | – | 3.1 × | 0.90 × | – | –
N[C@@H](c1csc(C(=O)c2c[nH]c3ccccc23)n1)C(F)(F)F [ARI-229] | 204 nM | 50.3 nM | 0% | – | 0% | None | 0% | None | – | – | – | – | – | – | – | –
CC[C@H](O)c1csc(C(=O)c2c[nH]c3cc(F)ccc23)n1 [ARI-164, (S)-(6-Fluoro-1H-indol-3-yl)(4-(1-hydroxypropyl)thiazol-2-yl)methanone] | 138 nM | 104 nM | 37% | – | 4% | 89% | 34% | 8% | 134 nM | 104 nM | – | – | – | – | – | –
CC[C@@H](N)c1csc(C(=O)c2c[nH]c3ccc(F)cc23)n1 [ARI-219] | 419 nM | 124 nM | 13% | – | 5% | 62% | 23% | None | – | – | – | – | – | – | – | –
NC1(c2csc(C(=O)c3c[nH]c4cc(F)ccc34)n2)CC1 [ARI-225, (4-(1-aminocyclopropyl)thiazol-2-yl)(6-fluoro-1H-indol-3-yl)methanone] | 109 nM | 46.8 nM | 39% | high turnover | 10% | 74% | 29% | 26% | – | – | – | – | – | – | – | –
N[C@H](c1csc(C(=O)c2c[nH]c3cc(F)ccc23)n1)C(F)(F)F [ARI-223] | 103 nM | 22.6 nM | 79% | high turnover | 12% | 85% | 42% | 47% | – | – | – | – | – | – | – | –
O=C(c1nc(C2(O)CC2)cs1)c1c[nH]c2cc(F)ccc12 [ARI-221, (6-fluoro-1H-indol-3-yl)(4-(1-hydroxycyclopropyl)thiazol-2-yl)methanone] | 34.5 nM | 26.1 nM | 95% | – | 28% | 71% | 82% | 14% | – | – | – | – | – | – | – | –
CC[C@H](N)c1csc(C(=O)c2c[nH]c3cc(F)ccc23)n1 [ARI-186, (S)-(4-(1-aminopropyl)thiazol-2-yl)(6-fluoro-1H-indol-3-yl)methanone] | – | – | 13% | very low turnover | 10% | 23% | 12% | 8% | 7.4 nM | 5.8 nM | – | – | 17.8 × | 18.0 × | 9.5 × and 9.6 × | 20.5 × and 20.6 ×
CC(C)(N)c1csc(C(=O)c2c[nH]c3cc(F)ccc23)n1 [ARI-226, (4-(2-aminopropan-2-yl)thiazol-2-yl)(6-fluoro-1H-indol-3-yl)methanone] | 33 nM | 24.6 nM | 6% | low turnover | 16% | None | 11% | None | – | – | – | – | 4.2 × | 4.2 × | – | –
